Earlier results on 2 compounds are cited in patent US20050261237A1, “Nucleoside phosphonate analogs” (priority 2003, published 2005).

Data set [1] deals with PNP enzyme from Mycobacterium tuberculosis (MtPNP) (Mycobacterium tuberculosis, UniProt P9WP01). Conditions: Lewandowics A. et al., Biochemistry (2003) 42, 6057.
For the next data set, the system named is HIV. To be noted: described in the literature; 61.1 with Base=G.

Sequence of PNP enzyme from Mycobacterium tuberculosis (MtPNP) (P9WP01 whole entry): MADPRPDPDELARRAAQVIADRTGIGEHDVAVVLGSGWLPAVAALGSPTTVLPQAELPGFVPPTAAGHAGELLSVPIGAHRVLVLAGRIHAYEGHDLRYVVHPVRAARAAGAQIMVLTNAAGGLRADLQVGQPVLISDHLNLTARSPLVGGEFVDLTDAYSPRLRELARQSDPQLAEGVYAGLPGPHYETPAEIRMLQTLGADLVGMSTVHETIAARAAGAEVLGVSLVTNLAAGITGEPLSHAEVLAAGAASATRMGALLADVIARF

As for `Nc1nc2c(CN3C[C@H](CO)[C@@H](O)C3)c[nH]c2c(=O)[nH]1` [DADMe-ImmG], the “inhibition of the PNP enzyme from Mycobacterium tuberculosis (MtPNP)” value in data set [1] is on record as “highly potent”.
Turning to `Nc1nc(=O)c2ncn([C@@H]3C[C@H](CO)[C@H]3CO)c2[nH]1` [lubocavir], the anti-HIV activity in the data set with HIV was 30 µM.
